Data on five molecules can be found in publication PMC10970558 (International Journal of Molecular Sciences, 2024).

In data set [1] the test system is C. elegans. Nature of the data set: In vivo toxicity, C. elegans body length. More on the design: species or system Caenorhabditis elegans. The procedure: (§1) Nematodes wild-type culture (strain N2) was maintained at 20 °C on NGM agar plates with bacteria Escherichia coli OP50 as food source. C. elegans culture was synchronized by treatment with hypochlorite. Obtained eggs were left in M9 buffer at room temperature to hatch until the following day. The next day L1 worms were placed on NGM plates with E. coli OP50 and left at 20 °C until reaching L4 stage (approximately 44 h). L4 worms were transferred to 15 mL falcons by washing NGM plates twice with 5 mL water and centrifuged at 1500 rpm for 3–4 min. Then supernatant was aspirated. Pellet was re-suspended with 5 mL of complete S medium followed by centrifugation. Subsequently the density of nematodes suspension was assessed according to Scanlan et al.. Worms were suspended in complete S medium with E. coli OP50 (1:1000), 0.08% cholesterol (5 mg/mL in Et-OH), 1% penicillin-streptomycin, 1% nystatin, and 100 mM FUdR (at final concentration 200 µM) to obtain 20 nematodes in 50 μL. FUdR was added to sterilize nematodes. After that worms were transferred to 96-well plate. The working solutions of tested drugs were prepared in the complete S medium with 0.1% DMSO and placed into a 96-well plate with previously seeded worms. Then, worms were incubated at 21 °C for 7 days. Live (moving and curling) and dead nematodes were counted every day with an inverted microscope with contrast phase (Delta Optical IB-100). Images of treated C. elegans were also collected. The assay was performed in triplicates in three independent experiments.
(§2) To analyze differences in nematode viability incubated with the respective concentrations of the compounds, the Kaplan–Meier estimator was used. Statistically significant differences between the control and treated groups were determined with Gehan’s Wilcoxon test. Statistically significant differences in body size between the control and treated groups were determined using a Kruskal–Wallis. p < 0.05 was considered statistically significant. All analyses and calculations were performed using Statistica 13.3 software (StatSoft, Cracow, Poland).

Data set [2] in a line: Neutral red (NR) cytotoxicity assay. It is filed as cell-based, human. The settings on record: human, HaCaT immortalized keratinocytes, 50 µM, 24 h, NR assay. The procedure:
(§3) After 24 h exposure to drugs, assay was performed as described.

The test system of data set [3] is HaCaT immortalized keratinocytes. In words: Neutral red (NR) cytotoxicity assay. Format: cell-based, human. The settings on record: for IC50: 24 h treatment, NR assay, AAT Bioquest IC50 calculator. The method, then:
as §3

Data set [4] has as its system BJ normal fibroblasts. Nature of the data set: Neutral red (NR) cytotoxicity assay. Format: cell-based, human. The settings on record: for IC50: 24 h treatment, AAT Bioquest IC50 calculator. The method, then:
as §3

For data set [5], the system named is HaCaT immortalized keratinocytes. Nature of the data set: Caspase 3/7 activity (apoptosis). Format: cell-based, human. To be noted: 24 h. The procedure:
(§4) As an apoptosis marker, Caspase 3/7 activity was measured with Apo-ONE® Homogenous Caspase-3/7 Assay (Promega). The fluorescence as determinant of caspase-3/7 activity was read at 485/535 nm using Tecan Infinite M200 PRO Multimode Microplate Reader (TECAN Group Ltd., Männedorf, Switzerland) and results were adjusted relatively to the number of cells per well (the number of cells was determined by fluorescence measurement after DAPI staining).

Data set [6] relates to BJ normal fibroblasts. In words: Caspase 3/7 activity (apoptosis). Format: cell-based, human. The settings on record: 24 h. The procedure:
as §4

Data set [7] has as its system C. elegans. In words: In vivo toxicity, C. elegans survival. The settings on record: for concentration at which toxic: 7 days incubation, tested 25–400 µM; for effect on the entire nematode organism: up to 100 µM, up to 4th day of incubation. The procedure: as §1, §2
Data set [8] is described as follows: In vivo toxicity, C. elegans survival. To be noted: N2, Caenorhabditis elegans, in vivo, other: exposure in complete S medium in 96-well plate, 7 days incubation, read-out: viability (living individuals). The method, then: as §1, §2
In a further data set the test system is A172 glioma cells. More on the design: method as in PMID 37574500. The settings on record: A172, 24 h incubation; cited from earlier work.
Another data set has as its system glioma stem cells GSC. More on the design: method as in PMID 18509487. The settings on record: mouse model of malignant glioma; cited from earlier work.
For data set [9], the system named is HaCaT immortalized keratinocytes. Nature of the data set: Intracellular ATP level (CellTiter-Glo). The settings on record: 24 h. It is filed as cell-based, human. The procedure:
(§5) Intracellular level of ATP was estimated with commercially available bioluminescent CellTiter-Glo® Assay kit from Promega, which was prepared according to manufacturer’s protocol and added to cells (100 μL/well). After 10 min incubation at RT the luminescence was measured using the Infinite M200 PRO Multimode Microplate Reader (TECAN Group Ltd., Männedorf, Switzerland) against blank (wells with the CellTiter-Glo® reagent only). The luminescence signal was proportional to ATP level. At the same time a parallel assay was performed, and cells were labeled with […] DAPI (as described above in proliferation assay). Using calibration curve, the DAPI fluorescence signal was used to estimate the number of cells in each well and to calculate luminescence signal intensity from ATP per one cell. The results were expressed as % of the control (non-treated cells).

In data set [10] the test system is BJ normal fibroblasts. In words: Intracellular ATP level (CellTiter-Glo). It is filed as cell-based, human. The settings on record: 24 h. The method, then: as §5
A general note: ATP-based viability assays read luminescence as a measure of living cells.

Data set [11] concerns HaCaT immortalized keratinocytes. In words: Migration (scratch) assay. It is filed as cell-based, human. The method, then:
(§6) Cells were seeded in 24-well plates at 1.5 × 10^5 cells/well in 600 µL culture medium and incubated at 37 °C for 24 h to obtain full confluence. Afterwards, cells were scraped with a sterile 200 µL pipette tips and debris was removed. […] Medium with lowered 2% FBS was used to inhibit cell division. […] Assay was performed as described. The results were expressed as % of scraped area closure estimated as ratio of area measured before and after treatment with drugs.

The subject of data set [12] is BJ normal fibroblasts. In words: Migration (scratch) assay. It is filed as cell-based, human. To be noted: 12 h. The procedure:
as §6

A further data set has as its system U87 glioma. On the set-up: method as in PMID 33941107. To be noted: cited from earlier work.
The test system of data set [13] is BJ normal fibroblasts. Nature of the data set: Proliferation assay (DAPI, 72 h). Format: cell-based, human. The method, then: Cells were seeded into 96-well, clear microplates at density 4 × 10^3 cells/well and incubated 24 h at 37 °C to attach. […] DMSO concentration was adjusted to 0.1% in all samples. The plates were placed for 72 h in incubator. Then, cells were washed with PBS and fixed in 3.7% formaldehyde solution in PBS for 15 min at RT, again washed with PBS and nuclei were staining with 600 nM DAPI solution in PBS (100 µL/well, 1 h). The fluorescent signal, proportional to the number of cells, was measured in Tecan Infinite M200 PRO Mulitmode Microplate Reader (TECAN Group Ltd., Männedorf, Switzerland) at 360 nm/460 nm. The results were expressed as % of the 0.1% DMSO treated control.

A further data set deals with PPARγ. On the set-up: method as in PMID 11684010. The settings on record: cited from earlier work.
The next data set deals with PPARγ in BJ cells. Nature of the data set: PPARγ level, Western blot. The settings on record: non-toxic concentration (12.5 µM), 24 h. It is filed as cell-based, human. For orientation: In western blotting, separated proteins are transferred to a membrane and probed.

Several values for one entry are separate records, joined by “and”; a condition that tells them apart may be missing. Identical values can stand only once. Like-named read-outs stand apart in the source and are kept apart here. Where only a bound is given, the exact number is not on record here.

For orientation: viability means the share of living cells, or the viability signal relative to a control. Usually IC50 stands for the midpoint of a concentration-inhibition curve. On to `Cc1ccc(-c2cc(C(F)(F)F)nn2-c2ccc(S(N)(=O)=O)cc2)cc1` [CXB, celecoxib], for which, in the data set on C. elegans [1] (200 µM, 7 days), the “reduction of body length” value was determined as 25%. For the same molecule, the “concentration at which body length was significantly shortened” value in the data set with C. elegans [1] (7-day treatment) was 50 to 400 µM. The “body length versus control group” value with C. elegans [1] (50 and 400 µM, 7 days) is “more than twice as short”. Also, in [2], the viability at 24 h, 50 µM was ~65%. For the same molecule, the IC50 is 59.5 µM in data set [3] (Homo sapiens, read-out: IC50); 77.6 µM in the data set with BJ normal fibroblasts [4] (Homo sapiens, Fibroblast); 60 µM in the data set on glioma stem cells GSC. Besides, the “concentration from which caspase 3/7 activity increased / apoptosis induced” value (in [5]; in the data set with BJ normal fibroblasts [6]) was ≥ 50 µM in each case. In addition, in the data set with C. elegans [7] (7-day treatment), the “concentration at which lifespan was significantly shortened” value is 25 to 400 µM. Also, the “concentration at which toxic” value with C. elegans [7] is given as 25 µM. In addition, the “effect on the entire nematode organism” value with C. elegans [7] was “no significant effect”. The viability at 7 days, 200 µM in data set [8] (200 µM) stood at 60%. In [8] (400 µM), the viability at 7 days, 400 µM is 73%. Moreover, the “concentration from which cells were significantly destroyed via apoptosis” value in the data set on A172 glioma cells is reported as ≥ 25 µM. Moreover, the “concentration at which intracellular ATP level increased” value is 25 µM and 50 µM in [9]; 25 µM with BJ normal fibroblasts [10]. The “concentration from which migration was reduced” value (in data set [11] (24 h); in the data set with BJ normal fibroblasts [12]) was ≥ 50 µM throughout.

Take `CC1(COc2ccc(CC3SC(=O)NC3=O)cc2)CCCCC1` (centres unmarked) [Ciglitazone]: the “concentration inhibiting growth of U87 glioma tumors, colony formation and migration” value with U87 glioma is given as 20 µM.

The term Ki denotes a measure of affinity in units of concentration, obtained from inhibition or displacement. As for `CC(C)C[C@H](NC(=O)OCC1c2ccccc2-c2ccccc21)C(=O)O` [FL, Fmoc-L-Leucine], in the data set with C. elegans [1] (7 days), the “change in nematode body length” value is listed as “did not significantly affect”. Moreover, the “concentration at which cell division was inhibited” value in the data set on BJ normal fibroblasts [13] is 100 µM. Also, the Ki on PPARγ was 15 µM. In addition, the IC50 result in data set [3] is on record as “≫”. For the same molecule, in [3] (up to the highest (100 µM) concentration), the sensitivity of cells result was “not sensitive”. Also, the viability result in the data set with BJ normal fibroblasts [4] (100 µM, 24 h) was “about 70%”. Besides, the IC50 with BJ normal fibroblasts [4] is 400 µM. For the same molecule, the “change of caspase 3/7 activity level” value in data set [5] is on record as “reduced”. Further, the “concentration from which caspase 3/7 activity increased / apoptosis induced” value in the data set on BJ normal fibroblasts [6] is ≥ 50 µM. In addition, in the data set with C. elegans [7], the “concentration at which toxic” value was determined as 400 µM and the “effect on the entire nematode organism” value is “no significant effect”. Moreover, the “increase of PPARγ level” value in the data set with PPARγ in BJ cells was 55% and 50%. Besides, the “concentration at which intracellular ATP level increased” value in [9] is listed as 100 µM. In the data set on BJ normal fibroblasts [10], the “concentration at which intracellular ATP level decreased” value was 100 µM. Moreover, in data set [11] (entire range of concentrations used (25–100 µM)), the effect on migration result was “did not affect”. Also, in the data set on BJ normal fibroblasts [12], the “concentration from which migration was reduced” value is reported as ≥ 50 µM.

On to `COC(=O)Nc1nc2ccc(C(=O)c3ccccc3)cc2[nH]1` [mebendazole], for which the IC50 with C. elegans [7] (Caenorhabditis elegans, data from our studies) was determined as 4 µM.

Take `Cc1c(C)c2c(c(C)c1O)CCC(C)(COc1ccc(CC3SC(=O)NC3=O)cc1)O2` (centres unmarked) [troglitazone]: the “concentration inhibiting growth of U87 glioma tumors, colony formation and migration” value in the data set with U87 glioma is reported as 20 µM.
